28 compounds from PubChem BioAssay AID1159564 (GlaxoSmithKline (GSK), 2015) can be followed below.

Calls of active or inactive are those of the source. No rule for the calls is given here.

This test has as its system L. donovani-infected THP-1 macrophages, intracellular amastigote imaging. In words: intracellular L. donovani amastigote inhibition, imaging, THP-1 host macrophages, host toxicity (AID 1159564).
Where [1] appears, read: measured here: THP-1 host cell toxicity.
Where [2] appears, read: measured here: amastigotes per macrophage.

Turning to `COc1ccc(C(=O)[C@H]2C[C@@H]2CN(Cc2ccccn2)Cc2ccccn2)cc1`, the IC50 (commonly the midpoint of a concentration-inhibition curve) was 1.6 µM. The IC50 under setting [1] was > 50 µM. The IC50 under setting [2] was determined as 1.3 µM.

Turning to `CS(=O)(=O)c1ccccc1C(=O)N(Cc1ccccc1)c1ccccc1`, the IC50 was > 50 µM (inactive). Under setting [1], the IC50 is > 50 µM. Under setting [2], this compound yielded an IC50 of 16 µM.

Consider `Cc1ccc(S(=O)(=O)Nc2ccc(CN3CCN(C(=O)c4cccc(C#N)c4)CC3)cc2)cc1`, for which the IC50 was > 50 µM (inactive). For the same compound, the IC50 under setting [1] is > 50 µM. The IC50 under setting [2] worked out at 25 µM.

Regarding `O=C(NC1CCN(C2Cc3ccc(NS(=O)(=O)c4cc(F)cc(F)c4)cc3C2)CC1)C1CC1` (stereo not drawn), the IC50 is > 50 µM (inactive). This compound came in with an IC50 under setting [1] of 13 µM. Under setting [2], this compound showed an IC50 of 13 µM.

Turning to `COc1cccc(CCNC(=O)C(c2cn[nH]c2)N2CCN(c3ccc(Cl)cc3)CC2)c1` (stereo not drawn), the IC50 was 20 µM. Moreover, under setting [1], the IC50 worked out at 25 µM. This compound came in with an IC50 under setting [2] of 10 µM.

Consider `N#Cc1cccc(CNc2ccc(-c3cnn(CC4CC4)c(=O)c3C#N)cc2)c1`, for which the half-maximal inhibitory concentration (IC50) is 1.3 µM. Under setting [1], this compound had an IC50 of 6.3 µM. Under setting [2], the IC50 stood at 0.25 µM.

For `O=C(CSc1ccc(-c2ccccn2)nn1)Nc1ccc(Cl)cc1`, the IC50 is > 50 µM (inactive). The IC50 under setting [1] is > 50 µM. In addition, the IC50 under setting [2] is > 50 µM.

Regarding `Cc1cc(Nc2cc(C3CC3)[nH]n2)nc(N2CCC[C@H]2C(N)=O)n1`, the IC50 was 0.2 µM. The same compound showed an IC50 under setting [1] of 0.13 µM. The same compound yielded a 50% inhibitory concentration (IC50) under setting [2] of 0.079 µM.

On to `COc1ccc(C2=NCC(CSc3nnc(-c4ccc5c(c4)OCO5)o3)S2)cc1` (stereo not drawn), for which the IC50 was 1 µM. Besides, under setting [1], the IC50 was > 50 µM. The same compound showed an IC50 under setting [2] of 0.4 µM.

As to `CNC(=O)C1Cc2ccccc2N1C(=O)COc1cccc(OC)c1` (stereo not drawn), the IC50 was > 50 µM (inactive). The IC50 under setting [1] was > 50 µM. For the same compound, the IC50 under setting [2] is > 50 µM.

Regarding `Cc1cc(Br)sc1CNCCCNc1cc(=O)c2ccccc2[nH]1`, the IC50 is 25 µM. Under setting [1], this compound displayed an IC50 of 20 µM. For the same compound, under setting [2], the IC50 worked out at 20 µM.

For the compound `COc1ccc2c(Cl)c(C(=O)N3CCC3)sc2c1Cl`, the IC50 was > 50 µM (inactive). The IC50 under setting [1] was > 50 µM. For the same compound, the IC50 under setting [2] is > 50 µM.

In the case of `COc1ccc(C(=O)Nc2c(C)nn(COc3cccc(C(F)(F)F)c3)c2C)cc1`, the IC50 is > 50 µM (inactive). Besides, the IC50 under setting [1] was 32 µM. In addition, the IC50 under setting [2] was > 50 µM.

In the case of `NS(=O)(=O)c1ccc(Nc2ncc3cccc(OC4CCNCC4)c3n2)cc1`, the IC50 is 20 µM. Also, under setting [1], the IC50 stood at 1 µM. Also, the IC50 under setting [2] amounted to 16 µM.

Consider `CC(C)N(C(=O)CN1C(=O)C(N)C(=O)N(c2ccccc2)c2ccccc21)c1ccccc1` (stereo not drawn), for which the IC50 is > 50 µM (inactive). Further, the IC50 under setting [1] is > 50 µM. Moreover, the IC50 under setting [2] was > 50 µM.

For the compound `O=C(c1ccc(O)c(Cl)c1)N1CCN(c2cnccn2)CC1`, the IC50 was 5 µM. The IC50 under setting [1] was > 50 µM. Under setting [2], this compound displayed an IC50 of 3.2 µM.

Consider `Cc1[nH]n2c(=O)c3c(nc2c1-c1ccc(Br)cc1)CCCC3`, for which the IC50 was > 50 µM (inactive). The half-maximal inhibitory concentration (IC50) under setting [1] is > 50 µM. In addition, the IC50 under setting [2] came to 40 µM.

For the compound `CN(CCOc1ccc(Cl)cc1)Cc1nc(N)nc(N(C)C)n1`, the IC50 was 7.9 µM. Besides, the IC50 under setting [1] is > 50 µM. Under setting [2], the IC50 was found to be 5 µM.

Turning to `COc1ccc2ncc(F)c(NC(=O)C3(O)CCC(NCc4ccc5c(c4)OCCO5)CC3)c2n1` (stereo not drawn), the IC50 is 32 µM. Further, the IC50 under setting [1] was 20 µM. For the same compound, under setting [2], the IC50 turned out to be 16 µM.

For `Cc1ccnc(NS(=O)(=O)c2ccc(NC(=O)c3ccc([N+](=O)[O-])s3)cc2)n1`, the IC50 is 10 µM. Under setting [1], this compound showed an IC50 of 10 µM. The same compound yielded an IC50 under setting [2] of 5 µM.

With `C=CC[C@@H]1CC=C[C@@H](C)N1C(=O)CCc1nnc(-c2ccc3c(c2)OCO3)o1`, the 50% inhibitory concentration (IC50) is 7.9 µM. The IC50 under setting [1] amounted to 13 µM. Moreover, the IC50 under setting [2] was determined as 3.2 µM.

Take `CCN(C)Cc1ccc(N2CCC(NS(=O)(=O)c3ccc4c(c3)CCO4)CC2)nc1`: the IC50 was > 50 µM (inactive). The IC50 under setting [1] is > 50 µM.

For `O=C(NCCc1nc(-c2ccc(F)c(F)c2)n[nH]1)C1CCCCC1`, the IC50 was > 50 µM (inactive). The same compound returned an IC50 under setting [1] of 20 µM. Besides, under setting [2], the IC50 stood at 16 µM.

With `O=c1[nH]ccc2ccc(-c3ccncc3)cc12`, the IC50 is > 50 µM (inactive). This compound displayed an IC50 under setting [1] of 40 µM. Moreover, the IC50 under setting [2] turned out to be 20 µM.

Regarding `Cn1c(CC(=O)NNC(=O)c2ccc3ccccc3n2)nc2ccccc21`, the IC50 was 1.3 µM. Moreover, the IC50 under setting [1] was > 50 µM. This compound also registered an IC50 under setting [2] of 0.79 µM.

`CC(Cn1ccnc1)NC(=O)C=Cc1ccc(Cl)cc1` (stereo not drawn): the IC50 was > 50 µM (inactive). Further, the IC50 under setting [1] was > 50 µM. The IC50 under setting [2] is > 50 µM.

`Cn1ccnc1-c1nc(NCc2ccccc2Cl)cc(C2CC2)n1`: the IC50 was 0.63 µM. This compound had an IC50 under setting [1] of 7.9 µM. Under setting [2], this compound returned an IC50 of 0.2 µM.

Take `O=C(NCC1CCCCC1)c1cnns1`: the IC50 is > 50 µM (inactive). For the same compound, under setting [1], the IC50 was > 50 µM. For the same compound, under setting [2], the IC50 stood at 10 µM.
